According to US10919941B2, “Functional lipid constructs” (KODE BIOTECH LIMITED, priority 2007, dated 2021):
No end group written: not given here.

What was measured:
Format in all cases: cell-based, human
[1] = system: Miltenberger Antibody Positive Panel; experiment: Reactivity of modified RBCs against the Miltenberger Antibody Positive Panel; design: key to score vs panel 15 TAP2 / score vs panel 4 T7202 / score vs panel 8 T5896 / score vs panel 2 T217 / score vs panel 3 T165 / score vs panel 14 TAP1 / score vs panel 10 Mia / score vs panel 11 Mur / score vs panel 12 Gam / score vs panel 6 T6025 / score vs panel 7 T8445 / score vs panel 9 MIII / score vs panel 13 BoxH / reactivity with Panel Serum #7 (T8445) / agglutination score, Panel Serum #7 (T8445): 0 or ‘−’ no agglutination; 0 or ‘−’ no agglutination; 1+ or 3=very weak agglutination; 1+ or 3=very weak agglutination; 2+ or 5=weak agglutination; 2+ or 5=weak agglutination; 3+ or 8=moderate strong agglutination; 3+ or 8=moderate strong agglutination; 4+ or 10/12=strong agglutination; 4+ or 10/12=strong agglutination; 4+ or 10/12=strong agglutination; conditions: for agglutination score, Panel Serum #7 (T8445): cells modified at 50 μg/ml, 2 hour 37° C., BioVue AHG cards; for reactivity with Panel Serum #7 (T8445): construct 50 μg/ml (2 hours, 37° C.)
Description: (§1) Red blood cells are modified by mixing 1 part by volume of washed packed red blood cells with 1 part by volume of peptide-lipid construct dispersed at a concentration of 10 to 1000 pg/ml in cell media (Celpresol™).
(§2) The suspensions are either: • 1. incubated for 2 hours at 37° C. before being washed and suspended in a cell medium for serological analysis at a concentration of 0.8 to 3% (Method 1); or • 2. incubated for 3 to 4 hours at room temperature (circa 25° C.) followed by 18 hours at 4° C. before being washed and suspended in a cell medium for serological analysis at a concentration of 0.8 to 3% (Method 2).
(§3) Serological reactions are graded or scored by either of two established systems (0 or ‘−’ no agglutination, 1+ or 3=very weak agglutination, 2+ or 5=weak agglutination, 3+ or 8=moderate strong agglutination, 4+ or 10/12=strong agglutination)
(§4) Serological platforms used are Tube (addition of reagents and reactants into plastic or glass serology tubes and after appropriate incubations, washing and centrifugation observing reactions macroscopically by eye and a 10× magnification eyepiece and scoring) and BioVue™ (addition of reactants into cassettes containing beads (including some reactants) and after appropriate incubations and centrifugation observing the reaction patterns trapped within the Gel matrix). BioVue is the serological column agglutination platform of Ortho-Clinical Diagnostics. Diamed is the serological column agglutination platform of Diamed AG.

[2] = system: sera reactive with modified RBCs; experiment: Neutralisation of reactive sera with free peptide, retested against modified RBCs (BioVue); design: key: 0 or ‘−’ no agglutination; 0 or ‘−’ no agglutination; 1+ or 3=very weak agglutination; 1+ or 3=very weak agglutination; 2+ or 5=weak agglutination; 2+ or 5=weak agglutination; 3+ or 8=moderate strong agglutination; 3+ or 8=moderate strong agglutination; 4+ or 10/12=strong agglutination; 4+ or 10/12=strong agglutination; 4+ or 10/12=strong agglutination; conditions: for Post-neutralisation serology, PAC74 / Post-neutralisation serology, TAP1: cells modified with M22
Excerpt: Optionally, where F is a peptide, the method includes the preliminary step of: • Adding an amount of the peptide to the sample of the serum; where the amount of the peptide is sufficient to neutralize non-specific agglutination or confirm specificity of the reactive antibody.

[3] = system: Miltenberger antibody positive sera; experiment: BioVue AHG card column agglutination serology of modified red blood cells; design: key: 0 or ‘−’ no agglutination; 0 or ‘−’ no agglutination; 1+ or 3=very weak agglutination; 1+ or 3=very weak agglutination; 2+ or 5=weak agglutination; 2+ or 5=weak agglutination; 3+ or 8=moderate strong agglutination; 3+ or 8=moderate strong agglutination; 4+ or 10/12=strong agglutination; 4+ or 10/12=strong agglutination; 4+ or 10/12=strong agglutination; conditions: for BioVue score vs TAP1 / BioVue score vs positive sample 2 T217 (T) / BioVue score vs positive sample 3 T165 (Mur) / BioVue score vs positive sample 4 T7202 (M) / BioVue score vs positive sample 8 T5896 (M + K + Mur): construct 50 μg/ml
Description: as §1, §2, §3, §4

antibody negative serums = experiment: False positive reactions of modified RBCs with antibody negative serums/plasma; design: key to Reaction score BioVue AHG, PAC samples 1-46, 49, 50, 52, 53 / Reaction score BioVue AHG, PAC sample 47 / Reaction score BioVue AHG, PAC sample 48 / Reaction score BioVue AHG, PAC sample 51 / agglutination score, T series serum 2 / agglutination score, T series serum 42 / agglutination score, T series serum 63 / agglutination score, T series serum 62 / agglutination score, T series serum 7 / agglutination score, T series serum 20 / agglutination score, T series serum 48 / agglutination score, T series serum 22 / agglutination score, T series serum 39 / agglutination score, T series serum 23 / agglutination score, T series serum 30 / agglutination score, T series serum 4 / agglutination score, T series serum 31 / agglutination score, T series serum 44 / agglutination score, T series serum 61 / agglutination score, T series serum 18 / agglutination score, T series serum 21 / agglutination score, T series serum 28 / agglutination score, T series serum 55 / agglutination score, false positive serum T18 / agglutination score, false positive serum T21 / agglutination score, false positive serum T28 / agglutination score, false positive serum T55 / agglutination score, false positive serum T78 / agglutination score, false positive serum T92: 0 or ‘−’ no agglutination; 0 or ‘−’ no agglutination; 1+ or 3=very weak agglutination; 1+ or 3=very weak agglutination; 2+ or 5=weak agglutination; 2+ or 5=weak agglutination; 3+ or 8=moderate strong agglutination; 3+ or 8=moderate strong agglutination; 4+ or 10/12=strong agglutination; 4+ or 10/12=strong agglutination; 4+ or 10/12=strong agglutination
[4] = cells modified at 500 μg/ml (Method 1), BioVue cards
[5] = serum neutralised with peptide SSQTNDKHKRDTY (10 μL of 1 mg/ml to 50 μL, 30 minutes 37° C.), BioVue cards
[6] = blood donor plasma, construct 50 μg/ml (2 hours, 37° C.)
[7] = cells modified at 50 μg/ml, 2 hour 37° C., BioVue AHG cards
[8] = cells modified with the peptide-lipid construct M28, AHG test in BioVue
[9] = 40 μl plasma + 10 μl neutraliser 1.0 mg/ml, 30 minutes 37° C.
[10] = 40 μl plasma + 10 μl neutraliser 1.0 mg/ml, 30 minutes 37° C., head: cells modified with the peptide-lipid construct M22 (title: M28)
[11] = larger series = 102, cells modified at 50 μg/ml, 2 hour 37° C., BioVue AHG cards

Substance: M13: DOPE peptide-lipid construct: MUTK peptide SSQTNDKHKRDTY, leader c (Cys), spacer PEG6 (SSQTNDKHKRDTYC; also: DOPE peptide-lipid construct via leader Cys, spacer PEG6)
- score vs panel 2 T217 ([1]; Table 8, construct 250 μg/ml): 8
- score vs panel 3 T165 ([1]; Table 8, construct 250 μg/ml): 0
- score vs panel 4 T7202 ([1]; Table 8, construct 250 μg/ml): 8
- score vs panel 6 T6025 ([1]; Table 8, construct 250 μg/ml): 8
- score vs panel 7 T8445 ([1]; Table 8, construct 250 μg/ml): 0
- score vs panel 8 T5896 ([1]; Table 8, construct 250 μg/ml): 3
- score vs panel 9 MIII ([1]; Table 8, construct 250 μg/ml): 0
- score vs panel 10 Mia ([1]; Table 8, construct 250 μg/ml): 0
- score vs panel 11 Mur ([1]; Table 8, construct 250 μg/ml): 0
- score vs panel 12 Gam ([1]; Table 8, construct 250 μg/ml): 0
- score vs panel 13 BoxH ([1]; Table 8, construct 250 μg/ml): 8
- agglutination score, serum #3, serum alone [2, 4]: 8
- agglutination score, serum #34, serum alone [2, 4]: 8
- agglutination score, serum #37, serum alone [2, 4]: 8
- agglutination score, serum #42, serum alone [2, 4]: 8
- agglutination score, serum #3, serum + peptide [2, 5]: 0
- agglutination score, serum #34, serum + peptide [2, 5]: 0
- agglutination score, serum #37, serum + peptide [2, 5]: 0
- agglutination score, serum #42, serum + peptide [2, 5]: 0

Substance: M40: DOPE peptide-lipid construct: Hil peptide EEETGETGQL, leader c, spacer CMG(2) (EEETGETGQLC; also: DOPE peptide-lipid construct via leader Cys, spacer CMG(2))
- BioVue score vs TAP1 [3]: 0
- BioVue score vs positive sample 2 T217 (T) [3]: 0
- BioVue score vs positive sample 3 T165 (Mur) [3]: 0
- BioVue score vs positive sample 4 T7202 (M) [3]: 0
- BioVue score vs positive sample 8 T5896 (M + K + Mur) [3]: 0
- Reaction score BioVue AHG, PAC sample 47 (antibody negative serums; [6]): 0
- Reaction score BioVue AHG, PAC sample 48 (antibody negative serums; [6]): 0
- Reaction score BioVue AHG, PAC sample 51 (antibody negative serums; [6]): 0
- Reaction score BioVue AHG, PAC samples 1-46, 49, 50, 52, 53 (antibody negative serums; [6]): 0
- % False Positives (antibody negative serums; panel of blood donor plasma samples (PAC), BioVue AHG, construct 50 μg/ml): 0%

Substance: M28: DOPE peptide-lipid construct: Mur peptide TYPAHTANE, leader c, spacer CMG(2) (TYPAHTANEC; also: DOPE peptide-lipid construct via leader Cys, spacer CMG(2))
- score vs panel 2 T217 ([1]; Table 9, construct 50 μg/ml): 0
- score vs panel 4 T7202 ([1]; Table 9, construct 50 μg/ml): 10
- score vs panel 7 T8445 ([1]; Table 9, construct 50 μg/ml): 8
- score vs panel 8 T5896 ([1]; Table 9, construct 50 μg/ml): 0
- score vs panel 15 TAP2 ([1]; Table 9, construct 50 μg/ml): 8
- agglutination score, Panel Serum #7 (T8445) [1]: 8
- reactivity with Panel Serum #7 (T8445) [1]: 8
- TAP 2 Serum BioVue AHG score ([3]; construct 100 μg/ml): 10
- % positive (antibody negative serums; T series reactives (n = 58), BioVue AHG cards): 9%
- agglutination score, T series serum 2 (antibody negative serums; [7]): 10
- agglutination score, T series serum 4 (antibody negative serums; [7]): 8
- agglutination score, T series serum 7 (antibody negative serums; [7]): 0
- agglutination score, T series serum 18 (antibody negative serums; [7]): 0
- agglutination score, T series serum 20 (antibody negative serums; [7]): 0
- agglutination score, T series serum 21 (antibody negative serums; [7]): 0
- agglutination score, T series serum 22 (antibody negative serums; [7]): 0
- agglutination score, T series serum 23 (antibody negative serums; [7]): 0
- agglutination score, T series serum 28 (antibody negative serums; [7]): 0
- agglutination score, T series serum 30 (antibody negative serums; [7]): 0
- agglutination score, T series serum 31 (antibody negative serums; [7]): 8
- agglutination score, T series serum 39 (antibody negative serums; [7]): 0
- agglutination score, T series serum 42 (antibody negative serums; [7]): 0
- agglutination score, T series serum 44 (antibody negative serums; [7]): 10
- agglutination score, T series serum 48 (antibody negative serums; [7]): 0
- agglutination score, T series serum 55 (antibody negative serums; [7]): 0
- agglutination score, T series serum 61 (antibody negative serums; [7]): 10
- agglutination score, T series serum 62 (antibody negative serums; [7]): 0
- agglutination score, T series serum 63 (antibody negative serums; [7]): 0
- Pre-neutralisation serology, PAC70 [2, 8]: 8
- Pre-neutralisation serology, PAC71 [2, 8]: 5
- Pre-neutralisation serology, PAC72 [2, 8]: 5
- Pre-neutralisation serology, TAP2 [2, 8]: 8

Substance: M28 peptide (TYPAHTANEC)
- Post-neutralisation serology, PAC74 [2, 9]: 8
- Post-neutralisation serology, TAP1 [2, 9]: 8
- Post-neutralisation serology, TAP2 [2, 10]: 8

Substance: M41: DOPE peptide-lipid construct: Hil peptide ETGETGQLVH, leader c, spacer CMG(2) (ETGETGQLVHC; also: DOPE peptide-lipid construct via leader Cys, spacer CMG(2))
- BioVue score vs TAP1 [3]: 0
- BioVue score vs positive sample 2 T217 (T) [3]: 0
- BioVue score vs positive sample 3 T165 (Mur) [3]: 0
- BioVue score vs positive sample 4 T7202 (M) [3]: 0
- BioVue score vs positive sample 8 T5896 (M + K + Mur) [3]: 0

Substance: VMYASSG?
- Post-neutralisation serology, PAC74 [2, 9]: 8
- Post-neutralisation serology, TAP1 [2, 9]: 8
- Post-neutralisation serology, PAC70 [2, 10]: 8
- Post-neutralisation serology, PAC71 [2, 10]: 5
- Post-neutralisation serology, PAC72 [2, 10]: 5
- Post-neutralisation serology, TAP2 [2, 10]: 8

Substance: M22 peptide (SQTNDKHKRDC)
- Post-neutralisation serology, PAC74 [2, 9]: 8
- Post-neutralisation serology, PAC70 [2, 10]: 8
- Post-neutralisation serology, TAP2 [2, 10]: 3

Substance: M26: DOPE peptide-lipid construct: Mur peptide YPAHTANEV, leader c, spacer CMG(2) (YPAHTANEVC; also: DOPE peptide-lipid construct via leader Cys, spacer CMG(2))
- score vs panel 2 T217 ([1]; Table 9, construct 50 μg/ml): 0
- score vs panel 3 T165 ([1]; Table 9, construct 50 μg/ml): 10
- score vs panel 4 T7202 ([1]; Table 9, construct 50 μg/ml): 0
- score vs panel 6 T6025 ([1]; Table 9, construct 50 μg/ml): 8
- score vs panel 7 T8445 ([1]; Table 9, construct 50 μg/ml): 8
- score vs panel 8 T5896 ([1]; Table 9, construct 50 μg/ml): 0
- score vs panel 9 MIII ([1]; Table 9, construct 50 μg/ml): 0
- score vs panel 10 Mia ([1]; Table 9, construct 50 μg/ml): 0
- score vs panel 11 Mur ([1]; Table 9, construct 50 μg/ml): 0
- score vs panel 12 Gam ([1]; Table 9, construct 50 μg/ml): 0
- score vs panel 15 TAP2 ([1]; Table 9, construct 50 μg/ml): 3
- agglutination score, Panel Serum #7 (T8445) [1]: 10
- reactivity with Panel Serum #7 (T8445) [1]: 10
- agglutination score, false positive serum T18 (antibody negative serums; [11]): 5
- agglutination score, false positive serum T21 (antibody negative serums; [11]): 10
- agglutination score, false positive serum T28 (antibody negative serums; [11]): 12
- agglutination score, false positive serum T55 (antibody negative serums; [11]): 10
- agglutination score, false positive serum T78 (antibody negative serums; [11]): 10
- agglutination score, false positive serum T92 (antibody negative serums; [11]): 12
